Results taken from patent US9777008B2, “PRMT5 inhibitors and uses thereof” (Epizyme, Inc., priority 2012, dated 2017).

Legend:
[1] = target: PRMT5/MEP50 (Homo sapiens (Human), UniProt O14744); assay: PRMT5 Biochemical Assay (PRMT5/MEP50 enzyme assay on peptide substrate, 3H-SAM Flashplate)
Text: S-adenosylmethionine (SAM), S-adenosylhomocysteine (SAH), bicine, KCl, Tween20, dimethylsulfoxide (DMSO), bovine skin gelatin (BSG), and Tris(2-carboxyethyl)phosphine hydrochloride solution (TCEP) were purchased from Sigma-Aldrich at the highest level of purity possible. ^3H-SAM was purchase from American Radiolabeled Chemicals with a specific activity of 80 Ci/mmol. 384-well streptavidin Flashplates were purchased from PerkinElmer.
Peptide representative of human histone H4 residues 1-15 was synthesized with a C-terminal linker-affinity tag motif and a C-terminal amide cap by 21st Century Biochemicals. The peptide was high high-performance liquid chromatography (HPLC) purified to greater than 95% purity and confirmed by liquid chromatography mass spectrometry (LC-MS). The sequence was Ac-[…][K-Biot]-amide (SEQ ID NO.:3).
Molecular Biology: Full-length human PRMT5 (NM_006109.3) transcript variant 1 clone was amplified from a fetal brain cDNA library, incorporating flanking 5′ sequence encoding a FLAG tag ([…]) (SEQ ID NO.:4) fused directly to Ala 2 of PRMT5. Full-length human MEP50 (NM_024102) clone was amplified from a human testis cDNA library incorporating a 5′ sequence encoding a 6-histidine tag (MHHHHHH) (SEQ ID NO.:5) fused directly to Arg 2 of MEP50. The amplified genes were sublconed into pENTR/D/TEV (Life Technologies) and subsequently transferred by Gateway™ attL×attR recombination to pDEST8 baculvirus expression vector (Life Technologies).
Recombinant baculovirus and Baculovirus-Infected Insect Cells (BIIC) were generated according to Bac-to-Bac kit instructions (Life Technologies) and Wasilko, 2006, respectively. Protein over-expression was accomplished by infecting exponentially growing Spodoptera frugiperda (SF9) cell culture at 1.2×10^6 cell/ml with a 5000 fold dilution of BIIC stock. Infections were carried out at 27° C. for 72 hours, harvested by centrifugation, and stored at −80° C. for purification.
Flag-PRMT5/6His-MeP50 was eluted with 300 mM Imidazole in the same buffer. The purity of recovered protein was 87%. Reference: Wasilko, D. J. and S. E. Lee: “TIPS: titerless infected-cells preservation and scale-up” Bioprocess J., 5 (2006), pp. 29-32.
General Procedure for PRMT5/MEP50 Enzyme Assays on Peptide Substrates.
The assays were all performed in a buffer consisting of 20 mM Bicine (pH=7.6), 1 mM TCEP, 0.005% BSG, and 0.002% Tween20, prepared on the day of use. Compounds in 100% DMSO (1 ul) were spotted into a polypropylene 384-well V-bottom plates (Greiner) using a Platemate Plus outfitted with a 384-channel head (Thermo Scientific). DMSO (1 ul) was added to Columns 11, 12, 23, 24, rows A-H for the maximum signal control and 1 ul of SAH, a known product and inhibitor of PRMT5/MEP50, was added to columns 11, 12, 23, 24, rows I-P for the minimum signal control. A cocktail (40 ul) containing the PRMT5/MEP50 enzyme and the peptide was added by Multidrop Combi (Thermo-Fisher). The compounds were allowed to incubate with PRMT5/MEP50 for 30 min at 25 degrees Celsius, then a cocktail (10 ul) containing ^3H-SAM was added to initiate the reaction (final volume=51 ul). The final concentrations of the components were as follows: PRMT5/MEP50 was 4 nM, ^3H-SAM was 75 nM, peptide was 40 nM, SAH in the minimum signal control wells was 100 uM, and the DMSO concentration was 1%. The assays were stopped by the addition of non-radioactive SAM (10 ul) to a final concentration of 600 uM, which dilutes the ^3H-SAM to a level where its incorporation into the peptide substrate is no longer detectable. 50 ul of the reaction in the 384-well polypropylene plate was then transferred to a 384-well Flashplate and the biotinylated peptides were allowed to bind to the streptavidin surface for at least 1 hour before being washed three times with 0.1% Tween20 in a Biotek ELx405 plate washer. […]

[2] = system: symmetric di-methyl arginine in Z-138 cells; assay: Z-138 Methylation Assay (In Cell Western for symmetric di-methyl arginine and DNA content); format: cell-based; conditions: Homo sapiens, read-out: ICW EC50
Text: [formula] [formula] Where top and bottom are the normally allowed to float, but may be fixed at 100 or 0 respectively in a 3-parameter fit. The Hill Coefficient normally allowed to float but may also be fixed at 1 in a 3-parameter fit. Y is the % inhibition and X is the compound concentration. Z-138 Methylation Assay
Z-138 suspension cells were purchased from ATCC (American Type Culture Collection, Manassas, Va.). RPMI/Glutamax medium, penicillin-streptomycin, heat inactivated fetal bovine serum, and D-PBS were purchased from Life Technologies, Grand Island, N.Y., USA. Odyssey blocking buffer, 800CW goat anti-rabbit IgG (H+L) antibody, and Licor Odyssey infrared scanner were purchased from Licor Biosciences, Lincoln, Nebr., USA. Symmetric di-methyl arginine antibody was purchased from EMD Millipore, Billerica, Mass., USA. 16% Paraformaldehyde was purchased from Electron Microscopy Sciences, Hatfield, Pa., USA. Z-138 suspension cells were maintained in growth medium (RPMI 1640 supplemented with 10% v/v heat inactivated fetal bovine serum and 100 units/mL penicillin-streptomycin) and cultured at 37° C. under 5% CO2.
Cell Treatment, in Cell Western (ICW) for Detection of Symmetric Di-Methyl Arginine and DNA Content.
Z-138 cells were seeded in assay medium at a concentration of 50,000 cells per mL to a 384-well cell culture plate with 50 μL per well. Compound (100 nL) from 384 well source plates was added directly to 384 well cell plate. Plates were incubated at 37° C., 5% CO2 for 96 hours. […]
First, the ratio for each well was determined by:
Each plate included fourteen control wells of DMSO only treatment (minimum inhibition) as well as fourteen control wells for maximum inhibition treated with 3 μM of a reference compound (Background wells). The average of the ratio values for each control type was calculated and used to determine the percent inhibition for each test well in the plate. […] Percent inhibition was determined and IC50 curves were generated using triplicate wells per concentration of compound. […]

Chain of PRMT5/MEP50 (O14744 other isoform, or with tags, fused parts or gaps): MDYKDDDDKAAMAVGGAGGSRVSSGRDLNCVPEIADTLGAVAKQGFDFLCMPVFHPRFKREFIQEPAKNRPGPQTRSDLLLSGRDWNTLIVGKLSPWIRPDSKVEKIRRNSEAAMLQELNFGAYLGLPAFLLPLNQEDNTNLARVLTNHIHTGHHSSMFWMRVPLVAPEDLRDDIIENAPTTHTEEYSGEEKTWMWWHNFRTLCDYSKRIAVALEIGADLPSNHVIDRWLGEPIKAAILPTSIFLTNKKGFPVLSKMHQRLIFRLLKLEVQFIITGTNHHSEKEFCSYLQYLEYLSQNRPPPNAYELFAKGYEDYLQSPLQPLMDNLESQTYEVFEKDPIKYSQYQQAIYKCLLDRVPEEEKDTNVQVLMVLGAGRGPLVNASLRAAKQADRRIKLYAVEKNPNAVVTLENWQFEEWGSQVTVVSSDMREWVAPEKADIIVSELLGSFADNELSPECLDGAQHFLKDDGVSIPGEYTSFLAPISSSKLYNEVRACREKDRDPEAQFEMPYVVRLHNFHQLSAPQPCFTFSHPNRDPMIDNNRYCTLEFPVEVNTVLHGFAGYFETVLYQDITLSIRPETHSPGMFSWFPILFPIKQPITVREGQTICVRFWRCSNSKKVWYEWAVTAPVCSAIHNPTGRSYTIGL
Chain of PRMT5/MEP50 (Q9BQA1 other isoform, or with tags, fused parts or gaps partner): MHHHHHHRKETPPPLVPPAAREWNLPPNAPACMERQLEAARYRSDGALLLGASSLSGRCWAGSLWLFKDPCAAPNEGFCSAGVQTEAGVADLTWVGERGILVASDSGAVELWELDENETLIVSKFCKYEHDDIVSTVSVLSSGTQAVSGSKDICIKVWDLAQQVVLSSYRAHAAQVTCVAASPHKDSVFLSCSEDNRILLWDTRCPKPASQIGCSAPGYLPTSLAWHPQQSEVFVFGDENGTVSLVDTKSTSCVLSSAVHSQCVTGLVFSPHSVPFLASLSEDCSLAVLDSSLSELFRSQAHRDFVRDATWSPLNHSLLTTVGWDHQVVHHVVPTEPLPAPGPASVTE

IC50 [1]: 1 to 10 µM
EC50 [2]: 1 to 10 µM
Structure (SMILES): O=C(Nc1cccc(OCC(O)CN2CCc3ccccc3C2)c1)c1cccnc1 (centres unmarked) [Compound 163]
